{"source": "ChEMBL document CHEMBL1165956", "about": "“Design, synthesis, and pharmacological evaluation of N-(4-mono and 4,5-disubstituted thiazol-2-yl)-2-aryl-3-(tetrahydro-2H-pyran-4-yl)propanamides as glucokinase activators” (Bioorg Med Chem, 2010)", "key": {"Hexokinase-4 [1]": {"biological_target": "T1, Hexokinase-4 (Homo sapiens, UniProt P35557)", "T1 sequence (P35557 whole entry)": "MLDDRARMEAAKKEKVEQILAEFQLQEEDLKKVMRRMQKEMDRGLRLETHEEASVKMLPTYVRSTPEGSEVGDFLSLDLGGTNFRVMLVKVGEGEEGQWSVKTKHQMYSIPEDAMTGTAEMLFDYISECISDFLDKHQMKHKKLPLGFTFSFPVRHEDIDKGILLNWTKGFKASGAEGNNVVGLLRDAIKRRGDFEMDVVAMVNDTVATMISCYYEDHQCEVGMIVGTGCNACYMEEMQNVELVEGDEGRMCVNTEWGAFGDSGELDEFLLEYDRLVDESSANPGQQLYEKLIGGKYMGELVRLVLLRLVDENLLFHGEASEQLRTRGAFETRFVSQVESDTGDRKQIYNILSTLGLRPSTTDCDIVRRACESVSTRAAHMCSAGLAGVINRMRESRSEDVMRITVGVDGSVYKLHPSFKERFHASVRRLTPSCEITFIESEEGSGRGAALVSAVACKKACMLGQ", "test": "Activation of human glucokinase expressed in Escherichia coli BL21(DE3) coexpressing G6PDH by spectrometry"}, "Mus musculus [2]": {"tested_on": "Mus musculus", "test": "Antihyperglycemic activity in diabetic C57BL/6J ob/ob mouse assessed as decrease in blood glucose at 50 mg/kg, po administered as single dose measured after 120 mins relative to control", "assay_type": "functional, organism-based", "set-up": "dose 50 mg/kg"}, "Mus musculus [3]": {"tested_on": "Mus musculus", "test": "Antihyperglycemic activity in diabetic C57BL/6J ob/ob mouse assessed as decrease in blood glucose at 20 mg/kg, po administered as single dose measured after 120 mins relative to control", "assay_type": "functional, organism-based", "set-up": "dose 20 mg/kg"}, "Mus musculus [4]": {"tested_on": "Mus musculus", "test": "Antihyperglycemic activity in diabetic C57BL/6J ob/ob mouse assessed as decrease in blood glucose at 20 mg/kg, po administered as single dose measured after 180 mins relative to control", "assay_type": "functional, organism-based", "set-up": "dose 20 mg/kg"}, "Mus musculus [5]": {"tested_on": "Mus musculus", "test": "Antihyperglycemic activity in diabetic C57BL/6J ob/ob mouse assessed as decrease in blood glucose at 50 mg/kg, po administered as single dose measured after 60 mins relative to control", "assay_type": "functional, organism-based", "set-up": "dose 50 mg/kg"}, "Mus musculus [6]": {"tested_on": "Mus musculus", "test": "Antihyperglycemic activity in diabetic C57BL/6J ob/ob mouse assessed as decrease in blood glucose at 50 mg/kg, po administered as single dose measured after 180 mins relative to control", "assay_type": "functional, organism-based", "set-up": "dose 50 mg/kg"}, "Mus musculus [7]": {"tested_on": "Mus musculus", "test": "Hypoglycemic activity in non-diabetic ICR mouse assessed as decrease in blood glucose at 10 mg/kg, po administered as single dose measured after 30 mins relative to control", "assay_type": "functional", "set-up": "scale not given: the % may be the effect or the level left"}, "Mus musculus [8]": {"tested_on": "Mus musculus", "test": "Hypoglycemic activity in non-diabetic ICR mouse assessed as decrease in blood glucose at 50 mg/kg, po administered as single dose measured after 240 mins relative to control", "assay_type": "functional, organism-based", "set-up": "dose 50 mg/kg"}, "Hexokinase-4 [9]": {"biological_target": "T2, Hexokinase-4 (Rattus norvegicus, UniProt P17712)", "T2 sequence (P17712 whole entry)": "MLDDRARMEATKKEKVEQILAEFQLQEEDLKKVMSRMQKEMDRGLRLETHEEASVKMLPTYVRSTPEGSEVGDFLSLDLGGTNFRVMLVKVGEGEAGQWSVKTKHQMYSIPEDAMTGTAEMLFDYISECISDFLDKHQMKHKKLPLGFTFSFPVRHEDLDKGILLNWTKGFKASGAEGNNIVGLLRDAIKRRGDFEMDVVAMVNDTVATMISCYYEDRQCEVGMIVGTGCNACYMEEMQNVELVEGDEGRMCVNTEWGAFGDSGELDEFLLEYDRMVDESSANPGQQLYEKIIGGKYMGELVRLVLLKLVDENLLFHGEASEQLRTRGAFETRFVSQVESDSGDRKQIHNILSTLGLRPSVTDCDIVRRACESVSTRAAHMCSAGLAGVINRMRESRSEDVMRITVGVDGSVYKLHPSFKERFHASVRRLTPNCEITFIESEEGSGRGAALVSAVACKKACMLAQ", "description": "Induction of glucokinase-mediated 2-deoxy-D-[3H]glucose uptake in Sprague-Dawley rat hepatocytes after 4 hrs by liquid scintillation countingl"}, "Hepatocyte": {"tested_on": "Hepatocyte", "test": "Induction of glycogen synthesis in Sprague-Dawley rat hepatocytes at 20 uM after 4 hrs relative to control", "assay_type": "functional"}, "Mus musculus [10]": {"tested_on": "Mus musculus", "test": "Hypoglycemic activity in non-diabetic ICR mouse assessed as decrease in blood glucose at 3 mg/kg, po administered as single dose measured after 30 mins relative to control", "assay_type": "functional", "set-up": "scale not given: the % may be the effect or the level left"}, "Mus musculus [11]": {"tested_on": "Mus musculus", "test": "Hypoglycemic activity in non-diabetic ICR mouse assessed as decrease in blood glucose at 50 mg/kg, po administered as single dose measured after 30 mins relative to control", "assay_type": "functional", "set-up": "scale not given: the % may be the effect or the level left"}, "Mus musculus [12]": {"tested_on": "Mus musculus", "test": "Hypoglycemic activity in non-diabetic ICR mouse assessed as decrease in blood glucose at 10 mg/kg, po administered as single dose measured after 240 mins relative to control", "assay_type": "functional, organism-based", "set-up": "dose 10 mg/kg"}, "Mus musculus [13]": {"tested_on": "Mus musculus", "test": "Hypoglycemic activity in non-diabetic ICR mouse assessed as decrease in blood glucose at 3 mg/kg, po administered as single dose measured after 120 mins relative to control", "assay_type": "functional, organism-based", "set-up": "dose 3 mg/kg"}, "[14]": {"test": "Oral bioavailability in dog", "assay_type": "ADME, organism-based, Canis lupus familiaris", "conditions": "in vivo"}, "[15]": {"test": "Oral bioavailability in rat", "assay_type": "ADME, organism-based", "conditions": "in vivo"}}, "note": "The source made the active and inactive calls. The rule behind the calls is not given here."}
{"smiles": "O=C(Nc1nc2c(s1)CCC2)C(CC1CCOCC1)c1ccc(S(=O)(=O)C2CC2)cc1", "note": "(stereo unspecified)", "values": [{"measurement": "EC50", "setting": "Hexokinase-4 [1]; read-out: EC50", "result": 79, "unit": "nM"}]}
{"smiles": "Cc1nc(NC(=O)C(CC2CCOCC2)c2ccc(S(C)(=O)=O)cc2)sc1C", "note": "(stereo unspecified)", "values": [{"measurement": "EC50", "setting": "Hexokinase-4 [1]; read-out: EC50", "result": 2860, "unit": "nM"}]}
{"smiles": "CS(=O)(=O)c1ccc(C(CC2CCOCC2)C(=O)Nc2nc(-c3ccc(F)cc3)cs2)cc1", "note": "(stereo unspecified)", "values": [{"measurement": "EC50", "setting": "Hexokinase-4 [1]; read-out: EC50", "result": 1180, "unit": "nM"}]}
{"smiles": "O=C1CSC(NC(=O)C(CC2CCOCC2)c2ccc(S(=O)(=O)C3CC3)cc2)=N1", "note": "(stereo unspecified)", "values": [{"measurement": "EC50", "setting": "Hexokinase-4 [1]; read-out: EC50", "result": 4680, "unit": "nM"}]}
{"smiles": "CS(=O)(=O)c1ccc(C(CC2CCOCC2)C(=O)Nc2nc(C3CC3)cs2)cc1", "note": "(stereo unspecified)", "values": [{"measurement": "EC50", "setting": "Hexokinase-4 [1]; read-out: EC50", "result": 1350, "unit": "nM"}]}
{"smiles": "Cc1nc(NC(=O)C(CC2CCOCC2)c2ccc(S(C)(=O)=O)cc2)sc1C(C)C", "note": "(stereo unspecified)", "values": [{"measurement": "EC50", "setting": "Hexokinase-4 [1]", "result": "Not Active"}]}
{"smiles": "CCc1csc(NC(=O)C(CC2CCOCC2)c2ccc(S(C)(=O)=O)cc2)n1", "note": "(stereo unspecified)", "values": [{"measurement": "EC50", "setting": "Hexokinase-4 [1]; read-out: EC50", "result": 1000, "unit": "nM"}]}
{"smiles": "CS(=O)(=O)c1ccc(C(CC2CCOCC2)C(=O)Nc2nc3cc(F)ccc3s2)cc1", "note": "(stereo unspecified)", "values": [{"measurement": "EC50", "setting": "Hexokinase-4 [1]", "result": "Not Active"}]}
{"smiles": "CC(C)Cc1csc(NC(=O)C(CC2CCOCC2)c2ccc(S(C)(=O)=O)cc2)n1", "note": "(stereo unspecified)", "values": [{"measurement": "EC50", "setting": "Hexokinase-4 [1]; read-out: EC50", "result": 355, "unit": "nM"}]}
{"smiles": "CC(C)/C=C1\\SC(NC(=O)C(CC2CCOCC2)c2ccc(S(=O)(=O)C3CC3)cc2)=NC1=O", "note": "(stereo unspecified)", "values": [{"measurement": "EC50", "setting": "Hexokinase-4 [1]", "result": "Not Active"}]}
{"smiles": "CC(C)c1csc(NC(=O)[C@H](CC2CCOCC2)c2ccc(S(C)(=O)=O)cc2)n1", "values": [{"measurement": "EC50", "setting": "Hexokinase-4 [1]; read-out: EC50", "result": 330, "unit": "nM"}]}
{"smiles": "COc1ccc(-c2csc(NC(=O)C(CC3CCOCC3)c3ccc(S(C)(=O)=O)cc3)n2)cc1", "note": "(stereo unspecified)", "values": [{"measurement": "EC50", "setting": "Hexokinase-4 [1]; read-out: EC50", "result": 1040, "unit": "nM"}]}
{"smiles": "CC(C)c1nc(NC(=O)C(CC2CCOCC2)c2ccc(S(=O)(=O)C3CC3)cc2)sc1I", "note": "(stereo unspecified)", "values": [{"measurement": "EC50", "setting": "Hexokinase-4 [1]", "result": "Not Active"}]}
{"smiles": "CS(=O)(=O)c1ccc(C(CC2CCOCC2)C(=O)Nc2nccs2)cc1", "note": "(stereo unspecified)", "values": [{"measurement": "EC50", "setting": "Hexokinase-4 [1]; read-out: EC50", "result": 1690, "unit": "nM"}]}
{"smiles": "CC(C)(C)c1csc(NC(=O)C(CC2CCOCC2)c2ccc(S(C)(=O)=O)cc2)n1", "note": "(stereo unspecified)", "values": [{"measurement": "EC50", "setting": "Hexokinase-4 [1]; read-out: EC50", "result": 2930, "unit": "nM"}]}
{"smiles": "CS(=O)(=O)c1ccc(C(CC2CCOCC2)C(=O)Nc2nc(-c3ccccc3)cs2)cc1", "note": "(stereo unspecified)", "values": [{"measurement": "EC50", "setting": "Hexokinase-4 [1]; read-out: EC50", "result": 724, "unit": "nM"}]}
{"smiles": "CN1CCc2nc(NC(=O)C(CC3CCOCC3)c3ccc(S(=O)(=O)C4CC4)cc3)sc2C1", "note": "(stereo unspecified)", "values": [{"measurement": "EC50", "setting": "Hexokinase-4 [1]; read-out: EC50", "result": 2860, "unit": "nM"}]}
{"smiles": "C=C(C)c1csc(NC(=O)C(CC2CCOCC2)c2ccc(S(=O)(=O)C3CC3)cc2)n1", "note": "(stereo unspecified)", "values": [{"measurement": "EC50", "setting": "Hexokinase-4 [1]; read-out: EC50", "result": 158, "unit": "nM"}]}
{"smiles": "O=C1N=C(NC(=O)C(CC2CCOCC2)c2ccc(S(=O)(=O)C3CC3)cc2)S/C1=C\\c1ccccc1", "note": "(stereo unspecified)", "values": [{"measurement": "EC50", "setting": "Hexokinase-4 [1]", "result": "Not Active"}]}
{"smiles": "CC(C)c1csc(NC(=O)[C@H](CC2CCOCC2)c2ccc(S(=O)(=O)C3CC3)cc2)n1", "values": [{"measurement": "Activity", "setting": "Mus musculus [2]", "result": "Active"}, {"measurement": "Activity", "setting": "Mus musculus [3]", "result": "Active"}, {"measurement": "Activity", "setting": "Mus musculus [4]", "result": "Active"}, {"measurement": "Activity", "setting": "Mus musculus [5]", "result": "Active"}, {"measurement": "Activity", "setting": "Mus musculus [6]", "result": "Active"}, {"measurement": "Activity", "setting": "Mus musculus [7]", "result": 33.9, "unit": "%"}, {"measurement": "Activity", "setting": "Mus musculus [8]", "result": "Active"}, {"measurement": "EC50", "setting": "Hexokinase-4 [9]", "result": 26, "unit": "nM"}, {"measurement": "Activity", "setting": "Hepatocyte", "result": 83.7, "unit": "%"}, {"measurement": "Activity", "setting": "Mus musculus [10]", "result": 12.7, "unit": "%"}, {"measurement": "Activity", "setting": "Mus musculus [11]", "result": 40.7, "unit": "%"}, {"measurement": "Activity", "setting": "Mus musculus [12]", "result": "Active"}, {"measurement": "Activity", "setting": "Mus musculus [13]", "result": "Active"}]}
{"smiles": "COC[C@H](C)Oc1cc(O[C@@H](C)Cc2ccccc2)cc(C(=O)Nc2ccc(C(=O)O)cn2)c1", "values": [{"measurement": "bioavailability", "setting": "[14]", "result": 100, "unit": "%"}, {"measurement": "bioavailability", "setting": "[15]", "result": 90, "unit": "%"}]}
{"smiles": "CC(C)c1nc(NC(=O)C(CC2CCOCC2)c2ccc(S(=O)(=O)C3CC3)cc2)sc1Br", "note": "(stereo unspecified)", "values": [{"measurement": "EC50", "setting": "Hexokinase-4 [1]; read-out: EC50", "result": 320, "unit": "nM"}]}
{"smiles": "CC(C)c1csc(NC(=O)C(CC2CCOCC2)c2ccc(S(C)(=O)=O)cc2)n1", "note": "(stereo unspecified)", "values": [{"measurement": "EC50", "setting": "Hexokinase-4 [1]; read-out: EC50", "result": 310, "unit": "nM"}]}
